From ChEMBL document CHEMBL1201862, “PubChem BioAssay data set” (2004)
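Five concentrations, 48 hours, 96-well plates. The concentration for 50% growth inhibition is given as GI50.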 The source made the active and inactive calls. Cut-off read from the data, not from the text of the source: active = GI50 up to about 1.1 µM and inactive = higher.

Assays:
Assay in all cases: NCI anticancer screen, dose series, 48 h
[1] = system: HCT-15
[2] = system: SF-539
[3] = system: U-251
[4] = system: TK-10
[5] = system: RPMI-8226
[6] = system: NCI/ADR-RES
[7] = system: NCI-H522
[8] = system: MDA-MB-231
[9] = system: HL-60
[10] = system: UACC-62
[11] = system: SNB-19
[12] = system: NCI-H23
[13] = system: SN12C
[14] = system: SF-295
[15] = system: SW-620
[16] = system: HCT-116
[17] = system: SR
[18] = system: NCI-H460
[19] = system: PC-3
[20] = system: COLO 205
[21] = system: MOLT-4
[22] = system: HT-29
[23] = system: A549
[24] = system: LOX IMVI
[25] = system: MDA-N
[26] = system: MDA-MB-435
[27] = system: SK-MEL-5
[28] = system: BT-549
[29] = system: SK-MEL-2
[30] = system: CAKI-1
[31] = system: M14
[32] = system: OVCAR-8
[33] = system: DU-145
[34] = system: K562
[35] = system: HOP-92
[36] = system: SNB-75
[37] = system: UO-31
[38] = system: T47D
[39] = system: OVCAR-4
[40] = system: CCRF-CEM
[41] = system: RXF 393
[42] = system: UACC-257
[43] = system: OVCAR-3
[44] = system: IGROV-1
[45] = system: MCF7
[46] = system: SK-OV-3
[47] = system: EKVX
[48] = system: OVCAR-5
[49] = system: 786-0
[50] = system: KM12
[51] = system: HCC 2998
[52] = system: NCI-H226
[53] = system: Hs-578T
[54] = system: Malme-3M
[55] = system: SK-MEL-28
[56] = system: SF-268
[57] = system: ACHN
[58] = system: HOP-62

Cc1cc(NS(=O)(=O)c2ccc(Nc3c4ccccc4nc4ccc(C(=O)Nc5ccc(S(=O)(=O)N=C(N)N)cc5)cc34)cc2)no1
GI50 [1]: > 100 µM
GI50 [2]: > 100 µM (inactive)
GI50 [3]: > 100 µM (inactive)
GI50 [4]: > 100 µM (inactive)
GI50 [5]: > 100 µM (inactive)
GI50 [6]: > 100 µM (inactive)
GI50 [7]: > 100 µM (inactive)
GI50 [8]: > 100 µM (inactive)
GI50 [9]: > 100 µM (inactive)
GI50 [10]: > 100 µM (inactive)
GI50 [11]: > 100 µM (inactive)
GI50 [12]: > 100 µM (inactive)
GI50 [13]: > 100 µM (inactive)
GI50 [14]: > 100 µM (inactive)
GI50 [15]: > 100 µM (inactive)
GI50 [16]: > 100 µM (inactive)
GI50 [17]: > 100 µM (inactive)
GI50 [18]: > 100 µM (inactive)
GI50 [19]: > 100 µM (inactive)
GI50 [20]: > 100 µM (inactive)
GI50 [21]: > 100 µM (inactive)
GI50 [22]: > 100 µM (inactive)
GI50 [23]: > 100 µM (inactive)
GI50 [24]: > 100 µM (inactive)
GI50 [25]: > 100 µM (inactive)
GI50 [26]: > 100 µM (inactive)
GI50 [27]: > 100 µM (inactive)
GI50 [28]: > 100 µM (inactive)
GI50 [29]: > 100 µM (inactive)
GI50 [30]: > 100 µM (inactive)
GI50 [31]: > 100 µM (inactive)
GI50 [32]: > 100 µM (inactive)
GI50 [33]: > 100 µM (inactive)
GI50 [34]: > 100 µM (inactive)
GI50 [35]: > 100 µM (inactive)
GI50 [36]: > 100 µM (inactive)
GI50 [37]: > 100 µM (inactive)
GI50 [38]: > 100 µM (inactive)
GI50 [39]: > 100 µM (inactive)
GI50 [40]: 66.1 µM (inactive)
GI50 [41]: > 100 µM (inactive)
GI50 [42]: > 100 µM (inactive)
GI50 [43]: > 100 µM (inactive)
GI50 [44]: > 100 µM (inactive)
GI50 [45]: > 100 µM (inactive)
GI50 [46]: > 100 µM (inactive)
GI50 [47]: > 100 µM (inactive)
GI50 [48]: > 100 µM (inactive)
GI50 [49]: > 100 µM (inactive)
GI50 [50]: > 100 µM (inactive)
GI50 [51]: > 100 µM (inactive)
GI50 [52]: > 100 µM (inactive)
GI50 [53]: > 100 µM (inactive)
GI50 [54]: > 100 µM (inactive)
GI50 [55]: > 100 µM (inactive)
GI50 [56]: > 100 µM (inactive)
GI50 [57]: > 100 µM (inactive)
GI50 [58]: > 100 µM (inactive)
